Laboratory results reported in ChEMBL document CHEMBL5346933, “Design and synthesis of novel arylurea derivatives of aryloxy(1-phenylpropyl) alicyclic diamines with antimicrobial activity against multidrug-resistant Gram-positive bacteria” (Eur J Med Chem, 2023).
Values after ≈ are worked out from the molar mass of the structure shown. Active and inactive are the calls of the source. The calls are words filed in the database; no cut-off is given here.

Assays:
Enterococcus faecalis [1] = experiment: Bactericidal activity against Enterococcus faecalis ATCC 29212 assessed as reduction in colony forming units incubated for 18 hrs in broth followed by culturing on agar plate for 24 hrs; format: functional; details: time 42 hrs, read-out: MBC99.9
Cell membrane [2] = experiment: Induction of cell membrane depolarization in methicillin-resistant Staphylococcus aureus 19449 assessed as bacterial cells with polarized membrane potential at 4 times MIC incubated for 25 to 30 mins by DiOC2(3) probe based flow cytometry (reference value: 98.8%); format: subcellular; details: time 25-30 min
Cell membrane [3] = experiment: Induction of cell membrane depolarization in vancomycin-resistant Enterococcus faecium clinical strain assessed as ratio of red to green fluorescence intensity at MIC incubated for 25 to 30 mins by DiOC2(3) probe based flow cytometry; format: subcellular; details: time 25-30 min
Staphylococcus aureus [4] = experiment: Antibacterial activity against vancomycin-intermediate Staphylococcus aureus ATCC 700699 assessed as inhibition of bacterial growth measured for 18 hrs by OD600 based analysis; format: functional, organism-based
Streptococcus pneumoniae = experiment: Antibacterial activity against Streptococcus pneumoniae ATCC 49619 assessed as inhibition of bacterial growth incubated for 18 hrs by broth microdilution method; format: functional
[5] = system: Staphylococcus epidermidis; experiment: Antibacterial activity against biofilm producer Staphylococcus epidermidis ATCC 35984 assessed as inhibition of bacterial growth incubated for 18 hrs by broth microdilution method; format: functional
Cell membrane [6] = experiment: Induction of cell membrane depolarization in methicillin-resistant Staphylococcus aureus 19449 assessed as bacterial cells with depolarized membrane potential at 4 times MIC incubated for 25 to 30 mins by DiOC2(3) probe based flow cytometry (reference value: 0.7%); format: subcellular; details: time 25-30 min
Enterococcus faecium [7] = experiment: Ratio of MBC to MIC for vancomycin-resistant Enterococcus faecium clinical strain; format: functional
Enterococcus faecalis [8] = experiment: Antibacterial activity against Enterococcus faecalis ATCC 29212 assessed as inhibition of bacterial growth measured for 18 hrs by OD600 based analysis; format: functional, organism-based
Staphylococcus aureus [9] = experiment: Antibacterial activity against methicillin-susceptible Staphylococcus aureus ATCC 25923 assessed as inhibition of bacterial growth incubated for 18 hrs by broth microdilution method; format: functional
[10] = Induction of hemolysis in horse RBC at 200 uM incubated for 1 hr; format: toxicity, cell-based, Equus caballus, Erythrocyte; details: horse red blood cells (erythrocytes), read-out: Activity
Enterococcus faecalis [11] = experiment: Antibacterial activity against Enterococcus faecalis ATCC 29212 assessed as inhibition of bacterial growth incubated for 18 hrs by broth microdilution method; format: functional
Enterococcus faecium [12] = experiment: Antibacterial activity against vancomycin-resistant Enterococcus faecium assessed as inhibition of bacterial growth measured for 18 hrs by OD600 based analysis; format: functional, organism-based
Cell membrane [13] = experiment: Induction of cell membrane depolarization in methicillin-resistant Staphylococcus aureus 19449 assessed as bacterial cells with polarized membrane potential at MIC incubated for 25 to 30 mins by DiOC2(3) probe based flow cytometry (reference value: 98.8%); format: subcellular; details: time 25-30 min
Staphylococcus aureus [14] = experiment: Antibacterial activity against Staphylococcus aureus Newman assessed as inhibition of bacterial growth incubated for 18 hrs by broth microdilution method; format: functional
Cell membrane [15] = experiment: Induction of cell membrane depolarization in methicillin-resistant Staphylococcus aureus 19449 assessed as bacterial cells with depolarized membrane potential at 2XMIC incubated for 25 to 30 mins by DiOC2(3) probe based flow cytometry (reference value: 0.7%); format: subcellular; details: time 25-30 min
Staphylococcus aureus [16] = experiment: Bactericidal activity against vancomycin-intermediate Staphylococcus aureus ATCC 700699 assessed as log reduction of bacterial colony forming units at 4 times MIC incubated for 20 hrs in broth followed by culturing on agar plate for 24 hrs by time-killing assay; format: functional; details: time 44 hrs
Enterococcus faecalis [17] = experiment: Ratio of MBC to MIC for Enterococcus faecalis ATCC 29212; format: functional
Cell membrane [18] = experiment: Induction of cell membrane depolarization in vancomycin-resistant Enterococcus faecium clinical strain assessed as bacterial cells with polarized membrane potential at 2XMIC incubated for 25 to 30 mins by DiOC2(3) probe based flow cytometry (reference value: 96.8%); format: subcellular; details: time 25-30 min
Cell membrane [19] = experiment: Induction of cell membrane depolarization in vancomycin-resistant Enterococcus faecium clinical strain assessed as bacterial cells with depolarized membrane potential at MIC incubated for 25 to 30 mins by DiOC2(3) probe based flow cytometry (reference value: 0.8%); format: subcellular; details: time 25-30 min
[20] = system: Staphylococcus epidermidis; experiment: Antibacterial activity against linezolid-resistant Staphylococcus epidermidis NIL 4399/19 assessed as inhibition of bacterial growth incubated for 18 hrs by broth microdilution method; format: functional
Cell membrane [21] = experiment: Induction of cell membrane depolarization in Staphylococcus aureus Newman assessed as ratio of red to green fluorescence intensity at MIC incubated for 25 to 30 mins by DiOC2(3) probe based flow cytometry; format: subcellular; details: time 25-30 min
Cell membrane [22] = experiment: Induction of cell membrane depolarization in Staphylococcus aureus Newman assessed as bacterial cells with polarized membrane potential at 2XMIC incubated for 25 to 30 mins by DiOC2(3) probe based flow cytometry (reference value: 94.3%); format: subcellular; details: time 25-30 min
[23] = Cytotoxicity against human BJ cells assessed as cell viability at 25 ug/ml incubated for 24 hrs by MTT assay; format: toxicity, cell-based; details: at 25 µg/mL, read-out: Activity
[24] = Intrinsic clearance in rat liver microsomes at 0.4 mg/ml preincubated for 10 mins followed by NADPH-regenerating system addition for 60 mins and measured per mg of protein by UPLC-MS analysis; format: ADME, Microsome; details: time 70 min, read-out: CLH
Cell membrane [25] = experiment: Induction of cell membrane depolarization in methicillin-resistant Staphylococcus aureus 19449 assessed as bacterial cells with depolarized membrane potential at MIC incubated for 25 to 30 mins by DiOC2(3) probe based flow cytometry (reference value: 0.7%); format: subcellular; details: time 25-30 min
Cell membrane [26] = experiment: Induction of cell membrane depolarization in methicillin-resistant Staphylococcus aureus 19449 assessed as bacterial cells with polarized membrane potential at 2XMIC incubated for 25 to 30 mins by DiOC2(3) probe based flow cytometry (reference value: 98.8%); format: subcellular; details: time 25-30 min
Staphylococcus aureus [27] = experiment: Ratio of MBC to MIC for vancomycin-intermediate Staphylococcus aureus ATCC 700699; format: functional
Staphylococcus aureus [28] = experiment: Bactericidal activity against methicillin-resistant Staphylococcus aureus clinical strain 19449 assessed as reduction in colony forming units incubated for 18 hrs in broth followed by culturing on agar plate for 24 hrs; format: functional; details: time 42 hrs, read-out: MBC99.9
Enterococcus faecium [29] = experiment: Antibacterial activity against vancomycin-resistant Enterococcus faecium assessed as inhibition of bacterial growth incubated for 18 hrs by broth microdilution method; format: functional
[30] = system: Staphylococcus epidermidis; experiment: Bactericidal activity against biofilm producer Staphylococcus epidermidis ATCC 35984 assessed as reduction in colony forming units incubated for 18 hrs in broth followed by culturing on agar plate for 24 hrs; format: functional; details: time 42 hrs, read-out: MBC99.9
Staphylococcus aureus [31] = experiment: Antibacterial activity against methicillin-susceptible Staphylococcus aureus ATCC 25923 assessed as inhibition of bacterial growth measured for 18 hrs by OD600 based analysis; format: functional, organism-based
Staphylococcus aureus [32] = experiment: Antibacterial activity against methicillin-resistant Staphylococcus aureus clinical strain 19449 assessed as inhibition of bacterial growth incubated for 18 hrs by broth microdilution method; format: functional
[33] = system: Staphylococcus epidermidis; experiment: Ratio of MBC to MIC for linezolid-resistant Staphylococcus epidermidis NIL 4399/19; format: functional
Cell membrane [34] = experiment: Induction of cell membrane depolarization in vancomycin-resistant Enterococcus faecium clinical strain assessed as bacterial cells with polarized membrane potential at MIC incubated for 25 to 30 mins by DiOC2(3) probe based flow cytometry (reference value: 96.8%); format: subcellular; details: time 25-30 min

SMILES: O=C(Nc1cccc(Cl)c1)NC1CCN(CCC(Oc2cccc(C(F)(F)F)c2)c2ccccc2)CC1 (racemic)
- MBC (Enterococcus faecalis [1]): 6.25 µg/mL (≈ 11.7 µM)
- Activity (Cell membrane [2]): 0%
- Ratio (Cell membrane [3]): 0.2
- Activity (Staphylococcus aureus [4]): Active
- MIC (Streptococcus pneumoniae): 6.25 µg/mL (≈ 11.7 µM)
- MIC [5]: 1.56 µg/mL (≈ 2.93 µM)
- Activity (Cell membrane [6]): 96.4%
- Ratio (Enterococcus faecium [7]): 4
- Activity (Enterococcus faecalis [8]): Active
- MIC (Staphylococcus aureus [9]): 3.12 µg/mL (≈ 5.87 µM)
- hemolysis at 1 h, 200 µM [10]: < 1%
- MIC (Enterococcus faecalis [11]): 1.56 µg/mL (≈ 2.93 µM)
- Activity (Enterococcus faecium [12]): Active
- Activity (Cell membrane [13]): 6%
- MIC (Staphylococcus aureus [14]): 1.56 µg/mL (≈ 2.93 µM)
- Activity (Cell membrane [15]): 96.8%
- Activity (Staphylococcus aureus [16]): >=3 log10CFU/ml
- Ratio (Enterococcus faecalis [17]): 4
- Activity (Cell membrane [18]): 0.3%
- Activity (Cell membrane [19]): 34.8%
- MIC [20]: 3.12 µg/mL (≈ 5.87 µM)
- Ratio (Cell membrane [21]): 0.27
- Activity (Cell membrane [22]): 0.1%
- viability at 24 h, 25 ug/ml [23]: 97%
- microsomal CLint [24]: 8.94 µL/min/mg
- Activity (Cell membrane [25]): 91.6%
- Activity (Cell membrane [26]): 0.1%
- Ratio (Staphylococcus aureus [27]): 4
- MBC (Staphylococcus aureus [28]): 3.12 µg/mL (≈ 5.87 µM)
- MIC (Enterococcus faecium [29]): 1.56 µg/mL (≈ 2.93 µM)
- MBC [30]: 6.25 µg/mL (≈ 11.7 µM)
- Activity (Staphylococcus aureus [31]): Active
- MIC (Staphylococcus aureus [32]): 0.78 µg/mL (≈ 1.47 µM)
- Ratio [33]: 2
- Activity (Cell membrane [34]): 59.3%
